Columns and labels:
rat cortical neurons = assay: Neurite Outgrowth Assay (Procedure B); format: cell-based; parameters: key: A: Statistically significant mean increase as a percent of DMSO control at 10 μM or less; B: No statistically significant mean increase as a percent of DMSO control at 10 μM or less; details: primary rat neuronal cultures, 72h, vs DMSO control, 10 μM or less
Method: Neurite Outgrowth Assay (Procedure B). Pregnant Wistar rats (Janvier; France) were used for the study. They were delivered 6 days before their use. Upon arrival at Neurofit animal facility, they were housed one per cage and maintained in a room with controlled temperature (21-22° C.) and a reversed light-dark cycle (12h/12h; lights on: 17:30-05:30; lights off: 05:30-17:30) with food and water available ad libitum.
Female Wistar rats of 17 days gestation were killed by cervical dislocation and the fetuses were removed from the uterus. Their brains were placed in ice-cold medium of Leibovitz (L15, Gibco, Fisher bioblock, France). Cortices were dissected and meninges were carefully removed. The cortical neurons were dissociated by trypsinization for 30 min at 37° C. (trypsin-EDTA, Gibco) in presence of 0.1 mg/ml DNAse I (Roche, France). The reaction was stopped by addition of Dulbecco's Modified Eagle Medium (DMEM; Gibco) with 10% of fetal bovine serum (FBS; Gibco). The suspension was triturated with a 10-ml pipette and using a needle syringe 21G and centrifuged at 350×g for 10 min at room temperature. The pellet of dissociated cells was resuspended in a medium consisting of Neurobasal (Gibco) supplemented with 2% B27 supplement (Gibco), 0.5 mM L-Glutamine (Gibco), an antibiotic-antimicotic mixture. Viable cells were counted in a Neubauer cytometer using the trypan blue exclusion test (Sigma). Cells were seeded at a density of 10000 cells per well in 96-well plate (Costar) precoated with poly-L-lysine. Test compound at different concentrations were added to the cultures. Donepezil (positive control) was tested at 250 nM.
After 72h (3 days) of plating, cultures were fixed with paraformaldehyde in PBS (4%, Sigma) for 30 min at 4° C. Then, cells were successively permeabilized with 0.1% Triton X100 for 30 min, saturated with PBS containing 3% of BSA and were incubated 1 h with anti-beta III tubulin antibody (Sigma) at 1/10 000 in PBS containing 0.5% of BSA. Cells were washed three times with PBS containing 0.5% of BSA, and they were incubated 1 h with goat anti-mouse antibody coupled with AF488 (Invitrogen A11001) diluted at 1/1000 in PBS containing 0.5% of BSA. Finally, nuclei were staining with DAPI 1 mg/ml at 1/1000 in PBS containing 0.5% of BSA. After rinsing with PBS, the plate was filmed and neurite networks were examined and analyzed using High-Content Screening (Celllnsight, Thermo Scientific). The average number of neurites per neuron and the average total length of neurites per neuron were the main parameters analyzed. Analysis of data was performed using analysis of variance (ANOVA). The Fisher's Protected Least Significant Difference test was used for multiple comparisons. A p value≤0.05 was considered significant. The software used is StatView 5.0 from SAS Institut.

5-HT2A [1] = target: T1, 5-HT2A (Homo sapiens, UniProt P28223); assay: Serotonin 5-HT2A in vitro cellular IPOne agonism assay; format: cell-based; parameters: host or cells: CHO-K1; details: CHO-K1 cells, IPOne HTRF, 60 min
T1 sequence (P28223 whole entry): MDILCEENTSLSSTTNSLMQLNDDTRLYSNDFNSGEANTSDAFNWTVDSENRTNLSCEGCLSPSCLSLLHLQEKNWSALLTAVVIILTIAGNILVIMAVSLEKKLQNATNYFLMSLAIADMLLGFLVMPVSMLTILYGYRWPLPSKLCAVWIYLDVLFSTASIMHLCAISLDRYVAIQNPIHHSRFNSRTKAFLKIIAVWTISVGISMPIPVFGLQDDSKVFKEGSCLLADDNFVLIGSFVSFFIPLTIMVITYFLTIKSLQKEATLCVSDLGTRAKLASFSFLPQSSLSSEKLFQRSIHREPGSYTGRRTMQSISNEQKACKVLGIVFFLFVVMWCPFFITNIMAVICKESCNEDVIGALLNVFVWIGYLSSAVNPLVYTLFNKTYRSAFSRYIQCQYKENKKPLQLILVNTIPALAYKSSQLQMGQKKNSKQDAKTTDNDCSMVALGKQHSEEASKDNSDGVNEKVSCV
Method: Serotonin 5-HT2A In Vitro Cellular IPOne Agonism Assay. The 5-HT2A IPOne HTRF assay was performed at Epics Therapeutics S.A. (Belgium, FAST-0505I) using conventional methods. Briefly, CHO-K1 cells expressing human recombinant 5-HT2A receptor grown to mid-log phase in culture media without antibiotics were detached with PBS-EDTA, centrifuged, and resuspended in medium without antibiotics buffer. 20,000 cells are distributed in a 96 well plate and incubated overnight at 37° C. with 5% CO2.
For agonist testing, the medium is removed and 20 μl of assay buffer plus 20 μl of test compound or reference agonist are added in each well. The plate is incubated for 60 min. at 37° C. with 5% CO2.
After addition of the lysis buffer containing IP1-d2 and anti-IP1 cryptate detection reagents, plates are incubated 1-hour at room temperature, and fluorescence ratios are measured according to the manufacturer specification, with the HTRF kit.

5-HT2A [2] = target: T1, 5-HT2A; assay: Serotonin 5-HT2A in vitro radioligand binding competition assay; parameters: purchased Epics Therapeutics S.A. (Belgium) FAST-0505B; host or cells: membrane extracts; details: radiotracer [3H]-DOI, membrane extracts
Method: Serotonin 5-HT2A In Vitro Radioligand Binding Competition Assay. The 5-HT2A radioligand binding competition assay was performed at Epics Therapeutics S.A. (Belgium, FAST-0505B) using conventional methods. Briefly, competition binding is performed in duplicate in the wells of a 96 well plate (Master Block, Greiner, 786201) containing binding buffer (optimized for each receptor), membrane extracts (amount of protein/well optimized for each receptor), radiotracer [^3H]-DOI (final concentration optimized for each receptor) and test compound. Nonspecific binding is determined by co-incubation with 200-fold excess of cold competitor. The samples are incubated in a final volume of 0.1 ml at a temperature and for a duration optimized for each receptor and then filtered over filter plates. Filters are washed six times with 0.5 ml of ice-cold washing buffer (optimized for each receptor) and 50 μl of Microscint 20 (Packard) are added in each well. The plates are incubated 15 min on an orbital shaker and then counted with a TopCount™ for 1 min/well.

Row | SMILES | Increase in Neurite Length (rat cortical neurons) | Increase in Neurite Number (rat cortical neurons) | EC50 (5-HT2A [1]) | IC50 (5-HT2A [2])
1 | COc1ccc2c3c([nH]c2n1)CCNCC3 [Example 2, 2-methoxy-5,6,7,8,9,10-hexahydropyrido[3′,2′:4,5]pyrrolo[2,3-d]azepine] | A | A | 10 to 100 nM | 101 to 1000 nM
2 | COc1ccc2c3c(n(C)c2n1)CCN(C)CC3 [Example 3, 2-methoxy-7,10-dimethyl-5,6,7,8,9,10-hexahydropyrido[3′,2′:4,5]pyrrolo[2,3-d]azepine] | B | B | 101 to 1000 nM | 1000 to 10000 nM
3 | COc1ccc2c3c([nH]c2n1)CCN(C1COC1)CC3 [Example 4, 2-methoxy-7-(oxetan-3-yl)-5,6,7,8,9,10 hexahydropyrido[3′,2′:4,5]pyrrolo[2,3-d]azepine] | B | B | > 10000 nM | > 10000 nM
4 | COc1ccc2c3c(n(C)c2n1)CCNCC3 [Example 5, 2-methoxy-10-methyl-5,6,7,8,9,10-hexahydropyrido[3′,2′:4,5]pyrrolo[2,3-d]azepine] | B | B | 10 to 100 nM | 101 to 1000 nM
5 | COc1ccc2c3c(n(C)c2n1)CCN(C1COC1)CC3 [Example 6, 2-methoxy-10-methyl-7-(oxetan-3-yl)-5,6,7,8,9,10-hexahydropyrido[3′,2′:4,5]pyrrolo[2,3-d]azepine] |  |  | 1000 to 10000 nM | > 10000 nM
6 | Cc1ccc2c3c([nH]c2n1)CCN(C)CC3 [Example 7, 2,7-dimethyl-5,6,7,8,9,10-hexahydropyrido[3′,2′:4,5]pyrrolo[2,3-d]azepine] | B | B | 1000 to 10000 nM | 1000 to 10000 nM
7 | Cc1ccc2c3c([nH]c2n1)CCNCC3 [Example 8, 2-methyl-5,6,7,8,9,10-hexahydropyrido[3′,2′:4,5]pyrrolo[2,3-d]azepine] | B | B | 101 to 1000 nM | 1000 to 10000 nM
8 | Cc1ccc2c3c(n(C)c2n1)CCNCC3 [Example 10, 2,10-dimethyl-5,6,7,8,9,10-hexahydropyrido[3′,2′:4,5]pyrrolo[2,3-d]azepine] |  |  | 10 to 100 nM | 1000 to 10000 nM
9 | Clc1cnc2[nH]c3c(c2c1)CCNCC3 [Example 13, 3-chloro-5,6,7,8,9,10-hexahydropyrido[3′,2′:4,5]pyrrolo[2,3-d] azepine] |  |  | 10 to 100 nM | 101 to 1000 nM
10 | COc1cc2c3c([nH]c2cn1)CCN(C)CC3 [Example 14, 3-methoxy-7-methyl-5,6,7,8,9,10-hexahydropyrido[4′,3′:4,5]pyrrolo[2,3-d]azepine] |  |  | > 10000 nM | > 10000 nM
11 | COc1ccc2[nH]c3c(c2n1)CCN(C)CC3 [Example 15, 2-methoxy-8-methyl-5,6,7,8,9,10-hexahydropyrido[2′,3′:4,5]pyrrolo[2,3-d]azepine] |  |  | 101 to 1000 nM | 101 to 1000 nM
12 | Brc1ccc2c3c([nH]c2n1)CCNCC3 [Example 16, 2-bromo-5,6,7,8,9,10-hexahydropyrido[3′,2′:4,5]pyrrolo[2,3-d]azepine] |  |  | 10 to 100 nM | 101 to 1000 nM
13 | c1cnc2[nH]c3c(c2c1)CCNCC3 [Example 17, 5,6,7,8,9,10-hexahydropyrido[3′,2′:4,5] pyrrolo[2,3-d] azepine] |  |  | 101 to 1000 nM | 101 to 1000 nM
14 | Cn1c2c(c3cccnc31)CCNCC2 [Example 18, 10-methyl-5,6,7,8,9,10-hexahydropyrido[3′,2′:4,5]pyrrolo[2,3-d]azepine] |  |  | 101 to 1000 nM | 101 to 1000 nM
15 | CN1CCc2[nH]c3nc(Br)ccc3c2CC1 [Example 19, 2-bromo-7-methyl-5,6,7,8,9,10-hexahydropyrido[3′,2′:4,5]pyrrolo[2,3-d]azepine] |  |  | 101 to 1000 nM | 1000 to 10000 nM
16 | CN1CCc2[nH]c3ncccc3c2CC1 [Example 20, 7-methyl-5,6,7,8,9,10-hexahydropyrido[3′,2′:4,5]pyrrolo[2,3-d]azepine] |  |  | 101 to 1000 nM | 101 to 1000 nM
17 | CN1CCc2c(n(C)c3ncccc23)CC1 [Example 21, 7,10-dimethyl-5,6,7,8,9,10-hexahydropyrido[3′,2′:4,5]pyrrolo[2,3-d]azepine] |  |  | 101 to 1000 nM | 101 to 1000 nM
18 | c1cnc2[nH]c3c(c2c1)CCN(C1COC1)CC3 [Example 22, 7-(oxetan-3-yl)-5,6,7,8,9,10-hexahydropyrido[3′,2′:4,5]pyrrolo[2,3-d]azepine] |  |  | > 10000 nM | > 10000 nM
19 | Cn1c2c(c3cccnc31)CCN(C1COC1)CC2 [Example 23, 10-methyl-7-(oxetan-3-yl)-5,6,7,8,9,10-hexahydropyrido[3′,2′:4,5]pyrrolo[2,3-d]azepine] |  |  | 1000 to 10000 nM | > 10000 nM
20 | Brc1ccc2c3c([nH]c2n1)CCN(C1COC1)CC3 [Example 24, 2-bromo-7-(oxetan-3-yl)-5,6,7,8,9,10-hexahydropyrido[3′,2′:4,5]pyrrolo[2,3-d]azepine] |  |  | 1000 to 10000 nM | 1000 to 10000 nM
21 | Cn1c2c(c3ccc(Br)nc31)CCNCC2 [Example 25, 2-bromo-10-methyl-5,6,7,8,9,10-hexahydropyrido[3′,2′:4,5]pyrrolo[2,3-d]azepine] |  |  | 10 to 100 nM | 101 to 1000 nM
22 | CN1CCc2[nH]c3ncc(Cl)cc3c2CC1 [Example 26, 3-chloro-7-methyl-5,6,7,8,9,10-hexahydropyrido[3′,2′:4,5]pyrrolo[2,3-d]azepine] |  |  | 101 to 1000 nM | 101 to 1000 nM
23 | Clc1cnc2[nH]c3c(c2c1)CCN(C1COC1)CC3 [Example 27, 3-chloro-7-(oxetan-3-yl)-5,6,7,8,9,10-hexahydropyrido[3′,2′:4,5]pyrrolo[2,3-d]azepine] |  |  | 1000 to 10000 nM | 1000 to 10000 nM
24 | Cn1c2c(c3cc(Cl)cnc31)CCNCC2 [Example 28, 3-chloro-10-methyl-5,6,7,8,9,10-hexahydropyrido[3′,2′:4,5]pyrrolo[2,3-d]azepine] |  |  | 101 to 1000 nM | 101 to 1000 nM
25 | Cn1c2c(c3cc(Cl)cnc31)CCN(C1COC1)CC2 [Example 29, 3-chloro-10-methyl-7-(oxetan-3-yl)-5,6,7,8,9,10-hexahydropyrido[3′,2′:4,5]pyrrolo[2,3-d]azepine] |  |  | 1000 to 10000 nM | > 10000 nM
26 | CN1CCc2c(n(C)c3ncc(Cl)cc23)CC1 [Example 30, 3-chloro-7,10-dimethyl-5,6,7,8,9,10-hexahydropyrido[3′,2′:4,5]pyrrolo[2,3-d]azepine] |  |  | 101 to 1000 nM | 101 to 1000 nM

From patent US20230227453A1 (priority 2020, published 2023)
